Experimental data: ChEMBL document CHEMBL1201862, “PubChem BioAssay data set” (2004)
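Tested at 5 concentrations; 48 h exposure; 96-well plates; endpoints linearly interpolated, else capped at highest concentration. Here, GI50 denotes the concentration required for 50% inhibition of growth.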 Activity calls are given as the source filed them. Cut-off read from the data, not from the text of the source: active = GI50 up to about 1.1 µM and inactive = higher.

What was measured:
Assay in all cases: DTP human tumour cell line panel, 48 h
786-0 = test system: 786-0
A498 = test system: A498
A549 = test system: A549
ACHN = test system: ACHN
BT-549 = test system: BT-549
CAKI-1 = test system: CAKI-1
CCRF-CEM = test system: CCRF-CEM
COLO 205 = test system: COLO 205
DU-145 = test system: DU-145
EKVX = test system: EKVX
HCC 2998 = test system: HCC 2998
HCT-116 = test system: HCT-116
HCT-15 = test system: HCT-15
HL-60 = test system: HL-60
HOP-62 = test system: HOP-62
HOP-92 = test system: HOP-92
HT-29 = test system: HT-29
Hs-578T = test system: Hs-578T
IGROV-1 = test system: IGROV-1
K562 = test system: K562
KM12 = test system: KM12
LOX IMVI = test system: LOX IMVI
M14 = test system: M14
MCF7 = test system: MCF7
MDA-MB-231 = test system: MDA-MB-231
MDA-MB-435 = test system: MDA-MB-435
MDA-N = test system: MDA-N
MOLT-4 = test system: MOLT-4
Malme-3M = test system: Malme-3M
NCI-H226 = test system: NCI-H226
NCI-H23 = test system: NCI-H23
NCI-H460 = test system: NCI-H460
NCI-H522 = test system: NCI-H522
NCI/ADR-RES = test system: NCI/ADR-RES
OVCAR-3 = test system: OVCAR-3
OVCAR-4 = test system: OVCAR-4
OVCAR-5 = test system: OVCAR-5
OVCAR-8 = test system: OVCAR-8
PC-3 = test system: PC-3
RPMI-8226 = test system: RPMI-8226
RXF 393 = test system: RXF 393
SF-268 = test system: SF-268
SF-295 = test system: SF-295
SF-539 = test system: SF-539
SK-MEL-28 = test system: SK-MEL-28
SK-MEL-2 = test system: SK-MEL-2
SK-MEL-5 = test system: SK-MEL-5
SK-OV-3 = test system: SK-OV-3
SN12C = test system: SN12C
SNB-19 = test system: SNB-19
SNB-75 = test system: SNB-75
SR = test system: SR
SW-620 = test system: SW-620
T47D = test system: T47D
TK-10 = test system: TK-10
U-251 = test system: U-251
UACC-257 = test system: UACC-257
UACC-62 = test system: UACC-62
UO-31 = test system: UO-31

COc1ccc(C2c3cc4c(cc3OC(N3CCOCC3)C2C)OCO4)c(OC)c1 (stereo unspecified)
GI50 (786-0): 4.63 µM (inactive) | GI50 (A498): 4.68 µM (inactive) | GI50 (A549): 7.43 µM (inactive) | GI50 (ACHN): 9.48 µM (inactive) | GI50 (BT-549): 3.23 µM (inactive) | GI50 (CAKI-1): 4.47 µM (inactive) | GI50 (CCRF-CEM): 3.5 µM (inactive) | GI50 (COLO 205): 9.33 µM (inactive) | GI50 (DU-145): 9.89 µM (inactive) | GI50 (EKVX): 13.9 µM (inactive) | GI50 (HCC 2998): 4.17 µM (inactive) | GI50 (HCT-116): 3.77 µM (inactive) | GI50 (HCT-15): 4.34 µM | GI50 (HL-60): 2.7 µM (inactive) | GI50 (HOP-62): 5.06 µM (inactive) | GI50 (HOP-92): 3.32 µM (inactive) | GI50 (HT-29): 3.48 µM (inactive) | GI50 (Hs-578T): 1.97 µM (inactive) | GI50 (IGROV-1): 7.59 µM (inactive) | GI50 (K562): 3.02 µM (inactive) | GI50 (KM12): 4.94 µM (inactive) | GI50 (LOX IMVI): 4.27 µM (inactive) | GI50 (M14): 3.96 µM (inactive) | GI50 (MCF7): 4.59 µM (inactive) | GI50 (MDA-MB-231): 8.69 µM (inactive) | GI50 (MDA-MB-435): 2.14 µM (inactive) | GI50 (MDA-N): 1.64 µM (inactive) | GI50 (MOLT-4): 3.58 µM (inactive) | GI50 (Malme-3M): 5.11 µM (inactive) | GI50 (NCI-H226): 3.72 µM (inactive) | GI50 (NCI-H23): 11.9 µM (inactive) | GI50 (NCI-H460): 5.12 µM (inactive) | GI50 (NCI-H522): 2.68 µM (inactive) | GI50 (NCI/ADR-RES): 2.71 µM (inactive) | GI50 (OVCAR-3): 3.48 µM (inactive) | GI50 (OVCAR-4): 10 µM (inactive) | GI50 (OVCAR-5): 19.1 µM (inactive) | GI50 (OVCAR-8): 8 µM (inactive) | GI50 (PC-3): 7.6 µM (inactive) | GI50 (RPMI-8226): 3.15 µM (inactive) | GI50 (RXF 393): 2.94 µM (inactive) | GI50 (SF-268): 6.95 µM (inactive) | GI50 (SF-295): 3.48 µM (inactive) | GI50 (SF-539): 3.05 µM (inactive) | GI50 (SK-MEL-28): 8.49 µM (inactive) | GI50 (SK-MEL-2): 4.95 µM (inactive) | GI50 (SK-MEL-5): 2.81 µM (inactive) | GI50 (SK-OV-3): 4.43 µM (inactive) | GI50 (SN12C): 10.7 µM (inactive) | GI50 (SNB-19): 4.36 µM (inactive) | GI50 (SNB-75): 3.95 µM (inactive) | GI50 (SR): 4.21 µM (inactive) | GI50 (SW-620): 3.72 µM (inactive) | GI50 (T47D): 5.83 µM (inactive) | GI50 (TK-10): 7.78 µM (inactive) | GI50 (U-251): 4.09 µM (inactive) | GI50 (UACC-257): 6.3 µM (inactive) | GI50 (UACC-62): 5.56 µM (inactive) | GI50 (UO-31): 9.06 µM (inactive)

O=c1c2ccccc2nc(-c2ccccc2)n1O
GI50 (786-0): > 100 µM (inactive) | GI50 (A498): > 100 µM (inactive) | GI50 (A549): 71.8 µM (inactive) | GI50 (ACHN): > 100 µM (inactive) | GI50 (BT-549): > 100 µM (inactive) | GI50 (CAKI-1): 8.47 µM (inactive) | GI50 (CCRF-CEM): 19.6 µM (inactive) | GI50 (COLO 205): > 100 µM (inactive) | GI50 (DU-145): > 100 µM (inactive) | GI50 (EKVX): > 100 µM (inactive) | GI50 (HCC 2998): > 100 µM (inactive) | GI50 (HCT-116): 55.8 µM (inactive) | GI50 (HCT-15): 41.1 µM | GI50 (HL-60): 54 µM (inactive) | GI50 (HOP-62): 5.28 µM (inactive) | GI50 (HOP-92): 22.9 µM (inactive) | GI50 (HT-29): > 100 µM (inactive) | GI50 (Hs-578T): > 100 µM (inactive) | GI50 (IGROV-1): 56.8 µM (inactive) | GI50 (K562): 30.9 µM (inactive) | GI50 (KM12): 67 µM (inactive) | GI50 (LOX IMVI): 76.6 µM (inactive) | GI50 (M14): 95.7 µM (inactive) | GI50 (MCF7): 95.9 µM (inactive) | GI50 (MDA-MB-231): > 100 µM (inactive) | GI50 (MDA-MB-435): > 100 µM (inactive) | GI50 (MDA-N): > 100 µM (inactive) | GI50 (Malme-3M): > 100 µM (inactive) | GI50 (NCI-H226): 73.5 µM (inactive) | GI50 (NCI-H23): 71 µM (inactive) | GI50 (NCI-H460): 64.1 µM (inactive) | GI50 (NCI-H522): > 100 µM (inactive) | GI50 (NCI/ADR-RES): 32.4 µM (inactive) | GI50 (OVCAR-3): 51.6 µM (inactive) | GI50 (OVCAR-4): 55.5 µM (inactive) | GI50 (OVCAR-5): > 100 µM (inactive) | GI50 (OVCAR-8): 51.5 µM (inactive) | GI50 (PC-3): > 100 µM (inactive) | GI50 (RPMI-8226): 28.6 µM (inactive) | GI50 (RXF 393): 31.3 µM (inactive) | GI50 (SF-268): > 100 µM (inactive) | GI50 (SF-295): 35.3 µM (inactive) | GI50 (SF-539): > 100 µM (inactive) | GI50 (SK-MEL-28): > 100 µM (inactive) | GI50 (SK-MEL-2): > 100 µM (inactive) | GI50 (SK-MEL-5): 70.8 µM (inactive) | GI50 (SK-OV-3): > 100 µM (inactive) | GI50 (SN12C): > 100 µM (inactive) | GI50 (SNB-19): > 100 µM (inactive) | GI50 (SNB-75): 87.3 µM (inactive) | GI50 (SR): 23.3 µM (inactive) | GI50 (SW-620): > 100 µM (inactive) | GI50 (T47D): 45.6 µM (inactive) | GI50 (TK-10): > 100 µM (inactive) | GI50 (U-251): > 100 µM (inactive) | GI50 (UACC-257): > 100 µM (inactive) | GI50 (UACC-62): > 100 µM (inactive) | GI50 (UO-31): 8.53 µM (inactive)

Oc1cc(-c2cccc(OCc3ccccc3)c2)nc2cc3c(cc12)OCO3
GI50 (786-0): 0.374 µM (active) | GI50 (A498): 0.256 µM (active) | GI50 (A549): 0.871 µM (active) | GI50 (ACHN): 3.71 µM (inactive) | GI50 (BT-549): 0.469 µM (active) | GI50 (CAKI-1): 0.673 µM (active) | GI50 (CCRF-CEM): 0.274 µM (active) | GI50 (COLO 205): 1.31 µM (inactive) | GI50 (DU-145): 0.644 µM (active) | GI50 (EKVX): 0.378 µM (active) | GI50 (HCC 2998): 0.298 µM (active) | GI50 (HCT-116): 0.346 µM (active) | GI50 (HCT-15): 0.376 µM | GI50 (HL-60): 0.0935 µM (active) | GI50 (HOP-62): 0.44 µM (active) | GI50 (HOP-92): 0.578 µM (active) | GI50 (HT-29): 2.01 µM (inactive) | GI50 (Hs-578T): 0.303 µM (active) | GI50 (IGROV-1): 1.09 µM (active) | GI50 (K562): 0.235 µM (active) | GI50 (KM12): 0.491 µM (active) | GI50 (LOX IMVI): 0.269 µM (active) | GI50 (M14): 0.311 µM (active) | GI50 (MCF7): 1.91 µM (inactive) | GI50 (MDA-MB-231): 0.605 µM (active) | GI50 (MDA-MB-435): 0.0902 µM (active) | GI50 (MDA-N): 0.106 µM (active) | GI50 (MOLT-4): 0.334 µM (active) | GI50 (Malme-3M): 0.621 µM (active) | GI50 (NCI-H226): 0.455 µM (active) | GI50 (NCI-H23): 0.75 µM (active) | GI50 (NCI-H460): 0.292 µM (active) | GI50 (NCI-H522): 0.268 µM (active) | GI50 (NCI/ADR-RES): 0.226 µM (active) | GI50 (OVCAR-3): 0.304 µM (active) | GI50 (OVCAR-4): 2.81 µM (inactive) | GI50 (OVCAR-5): 3.4 µM (inactive) | GI50 (OVCAR-8): 0.339 µM (active) | GI50 (PC-3): 0.327 µM (active) | GI50 (RPMI-8226): 0.303 µM (active) | GI50 (RXF 393): 0.33 µM (active) | GI50 (SF-268): 8.34 µM (inactive) | GI50 (SF-295): 0.63 µM (active) | GI50 (SF-539): 0.252 µM (active) | GI50 (SK-MEL-28): 0.632 µM (active) | GI50 (SK-MEL-2): 0.301 µM (active) | GI50 (SK-MEL-5): 0.247 µM (active) | GI50 (SK-OV-3): 0.342 µM (active) | GI50 (SN12C): 0.378 µM (active) | GI50 (SNB-19): 0.423 µM (active) | GI50 (SNB-75): 1.05 µM (active) | GI50 (SR): 0.397 µM (active) | GI50 (SW-620): 0.303 µM (active) | GI50 (T47D): > 52 µM (inactive) | GI50 (TK-10): 2.32 µM (inactive) | GI50 (U-251): 0.245 µM (active) | GI50 (UACC-257): 14.7 µM (inactive) | GI50 (UACC-62): 0.37 µM (active) | GI50 (UO-31): 0.502 µM (active)
